According to US20060167229A1, “Biologically active peptide conjugates” (priority 2002, published 2006):
Marks after values point to notes of the source that are not given here. Ends that are not written are not given here.

What was measured:
[1] = test system: T lymphocyte; test: T lymphocyte transformation test (ConA-stimulated spleen cells of treated mice, MTT); type: in vivo, BALB/c mice; conditions: for X ± SD (stimulation index): healthy mice, saline 1.3 ± 0.1; for effect on T lymphocyte transformation (summary): statistically significant difference from saline in any of the dosage groups 0.5-500 μg/kg/day
Procedure: The above substances were all dissolved in 0.5 ml saline and injected intraperitoneal (i.p.) for 15 continuous days, once per day.
Ten mice per group. The day after the last test substance administration, the mice were sacrificed by cervical dislocation. The spleen was isolated aseptically and manually dispersed in cold D-Hank's solution using an injection needle. The dispersed cell suspension was further sieved through a 100 gauge 150 μm diameter stainless steel sieve. After centrifugation at 200 g for 10 minutes, the supernatant was discarded. The cell pellet was re-suspended in 10 volume of Tris-NH4Cl buffer and then kept standing still for 10 minutes at room temperature. The suspended cells were collected by centrifugation at 150 g for 10 minutes. The cells were washed 2-4 times with cold D-Hank's solution by re-suspending and collecting by centrifugation with condition as described above. The washed cells were then diluted to the desired cell densities by RPMI-1640 culture medium, containing 10% fetal bovine serum.
(§1) Spleen cells of density 1×10^6/ml were placed onto a 96 wells cell culture plate, 100 μL/well, three parallel wells each of the assay sample and control sample per mouse. To the assay wells, 100 μl/well ConA of 100 μg/ml in RPMI-1640 was added, and […] plain RPMI-1640 was used for the controls. The cells were incubated for 66 hrs at 37° C., 5% CO2. The cells were then pelleted by centrifugation at 150 g for 10 minutes.
50 μl/well MTT of 1 mg/ml in RPMI-1640 was added to the cell pellet and the cells re-suspended by shaking for 2 minutes. The incubation was continued for 4 hours. The supernatant was discarded after centrifugation at 150 g for 10 minutes. 120 μl 40 mM HCl-2-propanol was added to the cell pellet and shaken for 3 minutes. […]
Each mouse formed three assay wells and three control wells. The Stimulation Index (SI) of each mouse was obtained by first deriving the average OD of the three parallel wells, then dividing the value of the assay wells by the control wells.

[2] = test system: IL-2; test: T lymphocyte IL-2 secretion test (HT-2 cell bioassay of ConA supernatant); type: in vivo, BALB/c mice; conditions: for activity of T lymphocyte in secreting IL-2, X ± SD (IU): healthy mice; for effect on the secretion of interleukin-2 (IL-2) by T lymphocytes (summary): statistically significant difference from saline in any of the dosage groups 0.5-500 μg/kg/day
Procedure: as §1
HT-2 cells at log phase were collected by centrifugation at 150 g for 10 minutes, and washed three times with cold Hank's solution by re-suspension and centrifugation. The collected HT-2 cells were re-suspended in RPMI-1640 and incubated at 37° C., 5% CO2 for 30 minutes. The cells were further washed twice with RPMI-1640 by re-suspension and centrifugation, and re-suspended to final concentration of 2×10^5/ml with RPMI-1640.
rIL-2 was diluted to the following concentration with RPMI-1640: 500 IU/ml, 250 IU/ml, 125 IU/ml, 62.5 IU/ml, 31.25 IU/ml, and […].
The plate was incubated at 37° C., 5% CO2 for 68 hours, then centrifuged at 150 g for 15 minutes and the supernatant removed. 100 μl 0.5 mg/ml MTT in RPMI-1640 without phenolsulfonphthalein was added into each well. After shaking for 3-4 minutes to re-suspend the cells, continue to incubate for another 4 hours. Samples were then centrifuged at 150 g for 15 minutes and the supernatant was removed. To each well, 120 μl 40 mM HCl-2-propanol was added, mixed for 3-4 minutes and OD analyzed at 570 nm, referenced at 630 nm with an ELISA plate reader.
The average OD of the three parallel wells of each dilution was taken and plotted against concentration on a semi-log paper, concentration on the X-axis. The concentration at 50% OD saturation was obtained for both the testing supernatant and rIL-2.

[3] = test system: Sheep red blood cells (SRBC); test: Humoral immunity (SRBC hemolysis index) of mice bearing transplanted B16 melanoma; type: in vivo, C57BL/6 mice; design: key: index = (OD540 sample ÷ reference OD540) × 500; conditions: saline 19.0 ± 9.1
Procedure: Intraperitoneal injection, once per day. […] Treatment of all groups with testing substance lasted for 30 days or until the animal died unless otherwise specified.
Stock B16 mouse melanoma cells were incubated in DMEM/F12 medium supplemented with 10% fetal bovine serum, 37° C./5% CO2 for 72 hrs, then washed 3-4 times with Hank's solution. The cell concentration was adjusted to 1×10^5 per ml with Hank's solution and 0.1 ml of the cell suspension was injected via the tail vein into the testing mice to generate the B16 melanoma bearing animal model. Treatment with test substance started as described in section Method 1.
Sheep red blood cells (SRBC) were prepared by collecting blood from the cervical vein and put into a sterile flask with glass beads. The flask was shaken for 3 minutes and the blood then mixed with Alsever solution (glucose 2.05 g, NaCl 0.4 g, […] 0.8 g, adjust to 100 ml with distilled water) and stored at 4° C. Immediately before use, samples were centrifuged at 130 g, 5 minutes to collect the SRBC. The cells were washed two times by re-suspension and centrifugation in normal saline. Then the cell pellet was collected by centrifugation at 180 g for 10 minutes and re-suspended in saline to make the final working SRBC suspension, 2% (v/v).
Complement was prepared by adding 10 volumes of fresh Cavy serum into one volume centrifuge packed SRBC, and then gently shaken for 30 minutes at 4° C. The SRBC was removed by centrifugation at 200 g for 10 minutes. 10 volumes of normal saline were added to obtain the working complement solution.
On the testing animals, on the 27th date of test substance treatment, 0.2 ml of the working SRBC cell suspension was injected into each animal to raise antibody. On the day after the last test substance administration, blood was collected from the eye canthus and left at room temperature for one hour for serum exudation. After centrifugation at 200 g for 10 minutes, the collected serum was diluted by 500 times with normal saline.
To 1 ml diluted mouse serum of each mouse, 0.5 ml SRBC suspension was added. Ice cold. Then 1 ml working complement solution was added and incubated at 37° C. water bath for 10 minutes. Reactions were terminated by ice cold. Samples were then centrifuged at 200 g for 10 minutes to obtain the supernatant.
To 1 ml of this supernatant, 3 ml Drabkin solution was added and left at room temperature for 10 minutes. OD540 nm was obtained.
Reference OD540 nm was obtained by mixing 0.25 ml SRBC suspension with Drabkin solution to 4 ml and placed at room temperature for 10 minutes before OD540 nm was taken. Hemolysis index=(OD540 nm of test sample÷reference OD540 nm)×500 6.2 After the Humoral Immunity Study, the Mice were Killed by Cervical Vertebra Dislocation. Postmortem Examination of the Animals was Performed. The Pathological Changes were Recorded, and the Numbers of Melanoma Lung Metastasis Foci Were Counted. Results

[4] = peptide 5 μg/kg/day i.p. 15 days (IFN-γ, IL-2 3×10^5 IU/kg/day)
[5] = peptide 50 μg/kg/day i.p. 15 days (IFN-γ, IL-2 3×10^5 IU/kg/day)
[6] = peptide 50 μg/kg/day i.p. 15 days (IFN-γ, IL-2 3×10^5 IU/kg/day), saline 39 ± 10
[7] = peptide 0.5 μg/kg/day i.p. 15 days (IFN-γ, IL-2 3×10^5 IU/kg/day)
[8] = peptide 500 μg/kg/day i.p. 15 days (IFN-γ, IL-2 3×10^5 IU/kg/day)
[9] = peptide 5 μg/kg/day i.p. 15 days (IFN-γ, IL-2 3×10^5 IU/kg/day), saline 37 ± 9
[10] = peptide 0.51 g/kg/day (so in the source) i.p. 15 days (IFN-γ, IL-2 3×10^5 IU/kg/day), saline 38 ± 13
[11] = peptide 500 μg/kg/day i.p. 15 days (IFN-γ, IL-2 3×10^5 IU/kg/day), saline 39 ± 10

Substance | X ± SD (stimulation index) [1, 4] | X ± SD (stimulation index) [1, 5] | effect on T lymphocyte transformation (summary) [1] | activity of T lymphocyte in secreting IL-2, X ± SD (IU) [2, 6] | effect on the secretion of interleukin-2 (IL-2) by T lymphocytes (summary) [2] | Hemolysis index ([3]; dose 0.5 μg/kg) | Hemolysis index ([3]; dose 5 μg/kg) | Hemolysis index ([3]; dose 50 μg/kg) | Hemolysis index ([3]; dose 500 μg/kg) | X ± SD (stimulation index) [1, 7] | X ± SD (stimulation index) [1, 8] | activity of T lymphocyte in secreting IL-2, X ± SD (IU) [2, 9] | activity of T lymphocyte in secreting IL-2, X ± SD (IU) [2, 10] | activity of T lymphocyte in secreting IL-2, X ± SD (IU) [2, 11]
FNFVPP [CMS003] | 1.6 ± 0.2 | 2.2 ± 0.5*^@^ | enhance | 86 ± 9*^ IU | enhance | 61.6 ± 26.9*^$ | 37.2 ± 15.9*^$ | 38.7 ± 13.5*^$ | 35.9 ± 13.0*^$ | – | – | – | – | –
IGMESAGIHETTY [CMS016] | – | – | – | – | – | – | – | – | 43.3 ± 29.9 | – | – | – | – | –
KAVGHLDDLPGAL [CMS008] | – | – | enhance | – | – | 42.7 ± 18.4*^$ | 38.9 ± 12.0*^$ | 37.1 ± 16.7*^$ | 50.1 ± 17.8*^$ | 1.7 ± 0.3 | 1.7 ± 0.1 | – | – | –
LGMQACGIHETTY [CMS012] | – | – | enhance | – | enhance | – | – | – | – | – | 1.6 ± 0.2 | 65 ± 16 IU | 59 ± 13 IU | –
LRVAPQQHPTL [CMS009] | – | – | enhance | – | enhance | – | – | – | – | – | 1.7 ± 0.2 | – | – | 114 ± 13*^@^ IU
PTTKTYFPHF [CMS001] | 1.7 ± 0.2 | 2.2 ± 0.5*^@^ | enhance | 60 ± 10 IU | enhance | 51.0 ± 16.2*^$ | 41.3 ± 17.7*^$ | 45.0 ± 31.9*^$ | 36.0 ± 10.2*^$ | – | – | – | – | –
Phe Val Asn Asp (FVND; listed as Sus scrofa) [CMS035] | – | – | – | – | – | – | 38.9 ± 21.2*^$ | 44.7 ± 22.7*^$ | 40.5 ± 25.8 | – | – | – | – | –
Pro Gln Asn Phe (PQNF; printed: Pro Gln Asn Phe) [CMS034] | 1.5 ± 0.2 | – | enhance | – | enhance | 50.8 ± 18.4*^$ | 43.0 ± 11.7*^$ | 30.2 ± 10.9 | – | – | – | – | 85 ± 10*^ IU | –
Pro Ser Ile Vat Gly Arg Pro Arg His Gln Gly Val Met (PSIVGRPRHQGVM; listed as Sus scrofa) [CMS015] | – | – | enhance | – | enhance | – | – | – | – | – | 1.9 ± 0.3*^@^ | – | – | 85 ± 17*^ IU
RVAPQQHPTL [CMS011] | – | – | enhance | – | enhance | 32.0 ± 14.7 | – | – | 34.4 ± 19.4 | 1.6 ± 0.4 | – | – | 101 ± 19*^@^ IU | –
Tyr Ser Leu (YSL; listed as Sus scrofa) [CMS024] | – | – | – | – | – | 43.0 ± 10.7*^$ | 42.2 ± 11.8*^$ | 27.8 ± 9.1 | 30.1 ± 10.0 | – | – | – | – | –
Tyr Ser Phe (YSF; listed as Sus scrofa) [CMS022] | – | – | – | – | enhance | – | – | – | – | – | – | – | 109 ± 14*^@^ IU | –
VAPEEHPTLLTEAPLNPK [CMS010] | – | – | enhance | – | enhance | 34.9 ± 10.5*^$ | 51.0 ± 14.6*^$ | 39.6 ± 7.7*^$ | 50.1 ± 16.7*^$ | 1.7 ± 0.3 | 2.0 ± 0.3*^@^ | – | 66 ± 11 IU | 125 ± 17*^@^ IU
VGMGQKDSY | – | – | enhance | – | – | 42.0 ± 12.0*^$ | 35.4 ± 15.1*^$ | 28.3 ± 7.6 | – | – | 1.8 ± 0.3 | – | – | –
VGMGQKDSYV [CMS020] | – | – | – | – | enhance | – | – | – | – | – | – | 63 ± 11 IU | – | –
